In one test the test system is AMPA receptor. Briefly: Inhibition of the cainate-induced signal at the AMPA receptor, electrophysiology on neuronal cells (Patch-Clamp-Method). Format: cell-based. The note with it: test concentration of 100 μM. As for the experimental part:
The tests were carried out at a test concentration of 100 μM.

Test [1] relates to "Na+ channel site 2"-binding site. In words: Binding to the Na+ channel site 2 binding site ([3H]-BTX). The note with it: test concentration typically 10 μM. On the procedure: (§1) The tests were typically carried out at a test concentration of 10 μM.
The target in another test is T1, Histamine H1 receptor (Cavia porcellus, UniProt P31389).
T1 construct: from tissue
T1 sequence (P31389 whole entry): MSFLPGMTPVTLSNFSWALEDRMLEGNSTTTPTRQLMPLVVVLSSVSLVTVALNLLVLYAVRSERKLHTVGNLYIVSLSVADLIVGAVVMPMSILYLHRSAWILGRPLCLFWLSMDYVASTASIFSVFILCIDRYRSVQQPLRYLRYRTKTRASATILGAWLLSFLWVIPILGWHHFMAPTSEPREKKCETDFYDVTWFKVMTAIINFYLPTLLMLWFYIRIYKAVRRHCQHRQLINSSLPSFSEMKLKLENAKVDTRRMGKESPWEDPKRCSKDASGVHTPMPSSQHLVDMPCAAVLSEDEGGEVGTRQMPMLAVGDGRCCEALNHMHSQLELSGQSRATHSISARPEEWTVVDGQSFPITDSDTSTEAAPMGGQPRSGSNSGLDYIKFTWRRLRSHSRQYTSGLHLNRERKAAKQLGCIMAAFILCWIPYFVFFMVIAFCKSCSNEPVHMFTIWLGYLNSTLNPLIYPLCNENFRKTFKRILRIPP
Briefly: Histamine H1 receptor binding study. Conditions: test concentration typically 10 μM; read-out: H1 Inh. [%]. From the text: Table 5 summarises the inhibitory values on the above receptors:

In the next test the test system is Sigma receptor. In words: Sigma receptor binding study. The note with it: test concentration typically 10 μM. As for the experimental part: as §1
For test [2], the system named is permanent focal cerebral ischaemia (MCAO). In words: Stroke model in the rat, permanent focal cerebral ischaemia by occlusion of the arteria cerebri media (MCAO). Format: in vivo. The text has this: A permanent focal cerebral ischaemia was induced by surgical occlusion of the arteria cerbri media (MCAO) (based on A. Tamura, D. I. Graham, J. McCulloch and G. M. Teasdale, J. Cereb. Blood Flow Metab. 1 (1981) 53-60).

The record followed here is patent publication US6277872A, “Oxadiazoles, processes for their preparation and their use as medicaments” (Boehringer Ingelheim KG, priority 1996, dated 2001).

As for `CN(C)CCOc1ccccc1-c1nc(-c2ccccc2)no1` [Example 2, 5-{2-[2-(N,N-dimethylamino)ethyl]oxy-phenyl}-3-phenyl-1,2,4-oxadiazole], the “AMPA Inh. [%] (inhibiting the cainate-induced signal at the AMPA receptor)” value in the test on AMPA receptor was 86%. Also, in test [1], the “Na+-channel Inh. [%] ([3H]-BTX)” value is on record as 86%. Also, the inhibition at 10 µM on Histamine H1 receptor is 99%. Moreover, in the test on Sigma receptor, the “Sigma Inh. [%]” value is reported as 62%. Moreover, in test [2], the “volume of the lesion” value is reported as “reduce the volume of the lesion significantly”.
In the case of `CN(C)CCOc1ccccc1-c1noc(-c2ccccc2)n1` [Example 3, 3-{2-[2-(N,N-Dimethylamino)ethyl]oxy-phenyl}-5-phenyl-1,2,4-oxadiazole], the “AMPA Inh. [%] (inhibiting the cainate-induced signal at the AMPA receptor)” value in the test on AMPA receptor stood at 96%. Moreover, the “Na+-channel Inh. [%] ([3H]-BTX)” value in test [1] stood at 91%. The inhibition at 10 µM at Histamine H1 receptor stood at 98%. In the test with Sigma receptor, the “Sigma Inh. [%]” value is 62%.
For `CN(C)CCOc1ccccc1-c1nc(-c2ccc(Cl)cc2)no1` [Example 18, 5-{2-[2-(N,N-Dimethylamino)-ethyl]oxy-phenyl}-3-(4-chlor-phenyl)-1,2,4-oxadiazole] the same measures were 80%, 85%, 94% and 80%.
For `c1ccc(-c2noc(-c3ccccc3OCCN3CCOCC3)n2)cc1` [Example 4, 5-{2-[2-(Morpholino)ethyl]oxy-phenyl}-3-phenyl-1,2,4-oxadiazole] the same measures were 71%, 79%, 44% and 41%.
Taken in the same sequence, the figures for `CN1CCN(CCOc2ccccc2-c2nc(-c3ccccc3)no2)CC1` [Example 5, 5-{2-[2-(4-methylpiperazin-1-yl)ethyl]oxy-phenyl}-3-phenyl-1,2,4-oxadiazole] were 84%, 78%, 74% and 90%.
Consider `Cc1cccc(-c2nc(-c3ccccc3)no2)c1OCCN(C)C` [Example 68, 5-{2-[2-(N,N-Dimethylamino)-ethyl]oxy-3-methyl-phenyl}-3-phenyl-1,2,4-oxadiazole], for which the “AMPA Inh. [%] (inhibiting the cainate-induced signal at the AMPA receptor)” value with AMPA receptor came out at 81%. Besides, the “Na+-channel Inh. [%] ([3H]-BTX)” value in test [1] came out at 100%. The inhibition at 10 µM on Histamine H1 receptor was found to be 74%. Further, the “Sigma Inh. [%]” value in the test with Sigma receptor is recorded as 79%.
Consider `CN(C)CCOc1ccccc1-c1nc(-c2ccccc2F)no1` [Example 34], for which the “AMPA Inh. [%] (inhibiting the cainate-induced signal at the AMPA receptor)” value with AMPA receptor is given as 97%. In addition, the “Na+-channel Inh. [%] ([3H]-BTX)” value in test [1] was found to be 88%. Further, the inhibition at 10 µM at Histamine H1 receptor turned out to be 96%. For the same compound, the “Sigma Inh. [%]” value with Sigma receptor came to 75%.
Taken in the same sequence, the figures for `CN(C)CCOc1ccccc1-c1nc(-c2ccc(Cl)cc2Cl)no1` [Example 28, 5-{2-[2-(N,N-Dimethylamino)-ethyl]oxy-phenyl}-3-(2,4-dichloro-phenyl)-1,2,4-oxadiazole] were 87%, 91%, 92% and 84%.
For `CN(C)CCOc1ccccc1-c1nc(-c2ccccc2Cl)no1` [Example 27, 5-{2-[2-(N,N-Dimethylamino)-ethyl]oxy-phenyl}-3-(2-chloro-phenyl)-1,2,4-oxadiazole] the same measures were 91%, 79%, 90% and 84%.
For `NCCOc1ccccc1-c1nc(-c2ccccc2)no1` [Example 24, 5-[2-(2-aminoethyl)oxy-phenyl]-3-phenyl-1,2,4-oxadiazole] the same measures were 96%, 89%, 27% and 52%.
Regarding `CN(C)CCOc1ccccc1-c1nc(-c2ccc(O)cc2)no1` [Example 8, 5-{2-[2-(N,N-Dimethylamino)ethyl]oxy-phenyl}-3-(4-hydroxyphenyl)-1,2,4-oxadiazole], the “AMPA Inh. [%] (inhibiting the cainate-induced signal at the AMPA receptor)” value in the test on AMPA receptor was 97%. Moreover, the “Na+-channel Inh. [%] ([3H]-BTX)” value in test [1] was found to be 87%. Besides, the inhibition at 10 µM on Histamine H1 receptor was determined as 94%. Moreover, the “Sigma Inh. [%]” value in the test on Sigma receptor stood at 59%.
